Source: patent US20230085307A1, “PYRIDAZINONE COMPOUND AND HERBICIDE” (NISSAN CHEMICAL CORPORATION, priority 2019, published 2023)

Key:
[1] = tested on: late watergrass; experiment: Test Example 1: herbicidal activity, application before weed generation under submerged conditions (Table 16, symbol A); assay type: in vivo, late watergrass (Echinochloa oryzicola); conditions: amount of applied herbicide 320 g/ha
How it was run: (§1)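 Submerged Wagner pots (alluvial soil, 4 cm water) sown with weed seeds and planted with 2.5-leaf rice seedlings; emulsifiable concentrate diluted in water applied to water surface on sowing day. Held in greenhouse at 25-30 °C; injury scored 0-5 by herbicidal rate after three weeks.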

[2] = tested on: Japanese bulrush; experiment: Test Example 1: herbicidal activity, application before weed generation under submerged conditions (Table 16, symbol B); assay type: in vivo, Japanese bulrush (Schoenoplectus juncoides); conditions: amount of applied herbicide 320 g/ha
How it was run: as §1

[3] = tested on: oval-leafed pondweed; experiment: Test Example 1: herbicidal activity, application before weed generation under submerged conditions (Table 16, symbol C); assay type: in vivo, oval-leafed pondweed (Monochoria vaginalis); conditions: amount of applied herbicide 320 g/ha
How it was run: as §1

[4] = tested on: barnyard grass; experiment: Test Example 3: herbicidal effect by foliage application, Wagner pot (Table 18, symbol H); assay type: in vivo, barnyard grass (Echinochloa crus-galli); conditions: 320 g/ha
How it was run: (§2)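 Plants were sown in alluvial soil held under 0.1–0.5 cm standing water and grown 14 days in a greenhouse at 25–30 °C. An emulsifiable formulation, water-diluted to the set dose, was then sprayed onto the foliage, and effects were scored three weeks later using previously defined criteria.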

[5] = tested on: Chinese sprangletop; experiment: Test Example 3: herbicidal effect by foliage application, Wagner pot (Table 18, symbol D); assay type: in vivo, chinese sprangletop (Leptochloa chinensis); conditions: 320 g/ha
How it was run: as §2

[6] = tested on: rice flat sedge; experiment: Test Example 3: herbicidal effect by foliage application, Wagner pot (Table 18, symbol E); assay type: in vivo, rice flat sedge (Cyperus iria); conditions: 320 g/ha
How it was run: as §2

[7] = tested on: southern crabgrass; experiment: Test Example 4: herbicidal effect by soil treatment (Table 19, symbol F); assay type: in vivo, southern crabgrass (Digitaria ciliaris); conditions: amount of applied herbicide 320 g/ha
How it was run: (§3)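 Herbicidal effect was rated 3 weeks after treatment, using the scoring criteria of an earlier test. The compound, formulated as an emulsion and diluted in water to a set herbicide amount, had been sprayed uniformly on soil over freshly sown seeds. Growth took place in a greenhouse at 25° C. to 30° C.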

[8] = tested on: green foxtail; experiment: Test Example 4: herbicidal effect by soil treatment (Table 19, symbol G); assay type: in vivo, green foxtail (Setaria viridis); conditions: amount of applied herbicide 320 g/ha
How it was run: as §3

[9] = tested on: barnyard grass; experiment: Test Example 4: herbicidal effect by soil treatment (Table 19, symbol H); assay type: in vivo, barnyard grass (Echinochloa crus-galli); conditions: amount of applied herbicide 320 g/ha
How it was run: as §3

[10] = tested on: wild oat; experiment: Test Example 4: herbicidal effect by soil treatment (Table 19, symbol I); assay type: in vivo, wild oat (Avena fatua); conditions: amount of applied herbicide 320 g/ha
How it was run: as §3

[11] = tested on: blackgrass; experiment: Test Example 4: herbicidal effect by soil treatment (Table 19, symbol J); assay type: in vivo, blackgrass (Alopecurus myosuroides); conditions: amount of applied herbicide 320 g/ha
How it was run: as §3

[12] = tested on: Italian ryegrass; experiment: Test Example 4: herbicidal effect by soil treatment (Table 19, symbol K); assay type: in vivo, Italian ryegrass (Lolium multiflorum); conditions: amount of applied herbicide 320 g/ha
How it was run: as §3

[13] = tested on: windgrass; experiment: Test Example 4: herbicidal effect by soil treatment (Table 19, symbol L); assay type: in vivo, windgrass (Apera spica-venti); conditions: amount of applied herbicide 320 g/ha
How it was run: as §3

[14] = tested on: velvetleaf; experiment: Test Example 4: herbicidal effect by soil treatment (Table 19, symbol M); assay type: in vivo, velvetleaf (Abutilon theophrasti); conditions: amount of applied herbicide 320 g/ha
How it was run: as §3

[15] = tested on: redroot pigweed; experiment: Test Example 4: herbicidal effect by soil treatment (Table 19, symbol N); assay type: in vivo, redroot pigweed (Amaranthus retroflexus); conditions: amount of applied herbicide 320 g/ha
How it was run: as §3

[16] = tested on: lambsquarters; experiment: Test Example 4: herbicidal effect by soil treatment (Table 19, symbol O); assay type: in vivo, lambsquarters (Chenopodium album); conditions: amount of applied herbicide 320 g/ha
How it was run: as §3

[17] = tested on: chickweed; experiment: Test Example 4: herbicidal effect by soil treatment (Table 19, symbol P); assay type: in vivo, common chickweed (Stellaria media); conditions: amount of applied herbicide 320 g/ha
How it was run: as §3

[18] = tested on: false cleavers; experiment: Test Example 4: herbicidal effect by soil treatment (Table 19, symbol Q); assay type: in vivo, false cleavers (Galium spurium); conditions: amount of applied herbicide 320 g/ha
How it was run: as §3

[19] = tested on: persian speedwell; experiment: Test Example 4: herbicidal effect by soil treatment (Table 19, symbol R); assay type: in vivo, Persian speedwell (Veronica persica); conditions: amount of applied herbicide 320 g/ha
How it was run: as §3

[20] = tested on: southern crabgrass; experiment: Test Example 5: herbicidal effect by foliage application, plastic box (Table 20, symbol F); assay type: in vivo, southern crabgrass (Digitaria ciliaris); conditions: foliage application, 320 g/ha, three weeks after application
How it was run: (§4)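 Foliar spray test: emulsion formulation diluted in water to a set application rate, sprayed onto 14-day-old plants raised in diluvial soil at 25° C to 30° C under glass. Both herbicidal effect and crop effect rated visually three weeks later.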

[21] = tested on: green foxtail; experiment: Test Example 5: herbicidal effect by foliage application, plastic box (Table 20, symbol G); assay type: in vivo, green foxtail (Setaria viridis); conditions: foliage application, 320 g/ha, three weeks after application
How it was run: as §4

[22] = tested on: barnyard grass; experiment: Test Example 5: herbicidal effect by foliage application, plastic box (Table 20, symbol H); assay type: in vivo, barnyard grass (Echinochloa crus-galli); conditions: foliage application, 320 g/ha, three weeks after application
How it was run: as §4

[23] = tested on: wild oat; experiment: Test Example 5: herbicidal effect by foliage application, plastic box (Table 20, symbol I); assay type: in vivo, wild oat (Avena fatua); conditions: foliage application, 320 g/ha, three weeks after application
How it was run: as §4

[24] = tested on: blackgrass; experiment: Test Example 5: herbicidal effect by foliage application, plastic box (Table 20, symbol J); assay type: in vivo, blackgrass (Alopecurus myosuroides); conditions: foliage application, 320 g/ha, three weeks after application
How it was run: as §4

[25] = tested on: Italian ryegrass; experiment: Test Example 5: herbicidal effect by foliage application, plastic box (Table 20, symbol K); assay type: in vivo, Italian ryegrass (Lolium multiflorum); conditions: foliage application, 320 g/ha, three weeks after application
How it was run: as §4

[26] = tested on: windgrass; experiment: Test Example 5: herbicidal effect by foliage application, plastic box (Table 20, symbol L); assay type: in vivo, windgrass (Apera spica-venti); conditions: foliage application, 320 g/ha, three weeks after application
How it was run: as §4

[27] = tested on: velvetleaf; experiment: Test Example 5: herbicidal effect by foliage application, plastic box (Table 20, symbol M); assay type: in vivo, velvetleaf (Abutilon theophrasti); conditions: foliage application, 320 g/ha, three weeks after application
How it was run: as §4

[28] = tested on: redroot pigweed; experiment: Test Example 5: herbicidal effect by foliage application, plastic box (Table 20, symbol N); assay type: in vivo, redroot pigweed (Amaranthus retroflexus); conditions: foliage application, 320 g/ha, three weeks after application
How it was run: as §4

[29] = tested on: lambsquarters; experiment: Test Example 5: herbicidal effect by foliage application, plastic box (Table 20, symbol O); assay type: in vivo, lambsquarters (Chenopodium album); conditions: foliage application, 320 g/ha, three weeks after application
How it was run: as §4

[30] = tested on: chickweed; experiment: Test Example 5: herbicidal effect by foliage application, plastic box (Table 20, symbol P); assay type: in vivo, common chickweed (Stellaria media); conditions: foliage application, 320 g/ha, three weeks after application
How it was run: as §4

[31] = tested on: false cleavers; experiment: Test Example 5: herbicidal effect by foliage application, plastic box (Table 20, symbol Q); assay type: in vivo, false cleavers (Galium spurium); conditions: foliage application, 320 g/ha, three weeks after application
How it was run: as §4

[32] = tested on: persian speedwell; experiment: Test Example 5: herbicidal effect by foliage application, plastic box (Table 20, symbol R); assay type: in vivo, Persian speedwell (Veronica persica); conditions: foliage application, 320 g/ha, three weeks after application
How it was run: as §4

**Q.** How did the “Herbicidal effect, A: late watergrass” value [1] turn out when `COc1ccc2c(-c3c(O)c(C)nn(C)c3=O)c(-c3ccc(SC)cc3)sc2c1` [3-074] was run?
**A.** Its value is 0 (Herbicidal rate of 5% or less (almost no effect)).

**Q.** And the “Herbicidal effect, B: Japanese bulrush” value [2]?
**A.** Its value is 2 (Herbicidal rate of 20% or more and less than 40%).

**Q.** What about the “Herbicidal effect, C: oval-leafed pondweed” value [3] of the same compound?
**A.** Its value is 0 (Herbicidal rate of 5% or less (almost no effect)).

**Q.** What about the “herbicidal effect on barnyard grass (H)” value [4] of the same compound?
**A.** The value was 4 (Herbicidal rate of 70% or more and less than 90%).

**Q.** And the “herbicidal effect on Chinese sprangletop (D)” value [5]?
**A.** Its value is 3 (Herbicidal rate of 40% or more and less than 70%).

**Q.** What about the “herbicidal effect on rice flat sedge (E)” value [6] of the same compound?
**A.** The value was 5 (Herbicidal rate of 90% or more (almost completely withered)).

**Q.** What about the “F: southern crabgrass, herbicidal effect grade” value [7] of the same compound?
**A.** Its value is 0 (Herbicidal rate of 5% or less (almost no effect)).

**Q.** What about the “G: green foxtail, herbicidal effect grade” value [8] of the same compound?
**A.** The value was 0 (Herbicidal rate of 5% or less (almost no effect)).

**Q.** What about the “H: barnyard grass, herbicidal effect grade” value [9] of the same compound?
**A.** Its value is 0 (Herbicidal rate of 5% or less (almost no effect)).

**Q.** What about the “I: wild oat, herbicidal effect grade” value [10] of the same compound?
**A.** The value was 0 (Herbicidal rate of 5% or less (almost no effect)).

**Q.** And the “J: blackgrass, herbicidal effect grade” value [11]?
**A.** The value was 0 (Herbicidal rate of 5% or less (almost no effect)).

**Q.** What about the “K: Italian ryegrass, herbicidal effect grade” value [12] of the same compound?
**A.** Its value is 0 (Herbicidal rate of 5% or less (almost no effect)).

**Q.** What about the “L: windgrass, herbicidal effect grade” value [13] of the same compound?
**A.** The value was 0 (Herbicidal rate of 5% or less (almost no effect)).

**Q.** And the “M: velvetleaf, herbicidal effect grade” value [14]?
**A.** Its value is 0 (Herbicidal rate of 5% or less (almost no effect)).

**Q.** And the “N: redroot pigweed, herbicidal effect grade” value [15]?
**A.** The value was 5 (Herbicidal rate of 90% or more (almost completely withered)).

**Q.** And the “O: lambsquarters, herbicidal effect grade” value [16]?
**A.** The value was 5 (Herbicidal rate of 90% or more (almost completely withered)).

**Q.** What about the “P: chickweed, herbicidal effect grade” value [17] of the same compound?
**A.** Its value is 3 (Herbicidal rate of 40% or more and less than 70%).

**Q.** What about the “Q: false cleavers, herbicidal effect grade” value [18] of the same compound?
**A.** Its value is 0 (Herbicidal rate of 5% or less (almost no effect)).

**Q.** What about the “R: persian speedwell, herbicidal effect grade” value [19] of the same compound?
**A.** The value was 5 (Herbicidal rate of 90% or more (almost completely withered)).

**Q.** And the “F: southern crabgrass, herbicidal effect grade” value [20]?
**A.** The value was 2 (Herbicidal rate of 20% or more and less than 40%).

**Q.** And the “G: green foxtail, herbicidal effect grade” value [21]?
**A.** Its value is 3 (Herbicidal rate of 40% or more and less than 70%).

**Q.** What about the “H: barnyard grass, herbicidal effect grade” value [22] of the same compound?
**A.** The value was 0 (Herbicidal rate of 5% or less (almost no effect)).

**Q.** And the “I: wild oat, herbicidal effect grade” value [23]?
**A.** The value was 0 (Herbicidal rate of 5% or less (almost no effect)).

**Q.** What about the “J: blackgrass, herbicidal effect grade” value [24] of the same compound?
**A.** The value was 0 (Herbicidal rate of 5% or less (almost no effect)).

**Q.** And the “K: Italian ryegrass, herbicidal effect grade” value [25]?
**A.** The value was 0 (Herbicidal rate of 5% or less (almost no effect)).

**Q.** What about the “L: windgrass, herbicidal effect grade” value [26] of the same compound?
**A.** Its value is 3 (Herbicidal rate of 40% or more and less than 70%).

**Q.** What about the “M: velvetleaf, herbicidal effect grade” value [27] of the same compound?
**A.** Its value is 4 (Herbicidal rate of 70% or more and less than 90%).

**Q.** And the “N: redroot pigweed, herbicidal effect grade” value [28]?
**A.** Its value is 5 (Herbicidal rate of 90% or more (almost completely withered)).

**Q.** What about the “O: lambsquarters, herbicidal effect grade” value [29] of the same compound?
**A.** The value was 5 (Herbicidal rate of 90% or more (almost completely withered)).

**Q.** What about the “P: chickweed, herbicidal effect grade” value [30] of the same compound?
**A.** The value was 5 (Herbicidal rate of 90% or more (almost completely withered)).

**Q.** What about the “Q: false cleavers, herbicidal effect grade” value [31] of the same compound?
**A.** The value was 5 (Herbicidal rate of 90% or more (almost completely withered)).

**Q.** What about the “R: persian speedwell, herbicidal effect grade” value [32] of the same compound?
**A.** Its value is 5 (Herbicidal rate of 90% or more (almost completely withered)).
